Test results taken from ChEMBL document CHEMBL1153225 (Bioorg Med Chem Lett, 2010).

Test system: RAW264.7
Experiment: Antiresorptive activity in mouse RAW264.7 cells assessed as inhibition of tartrate-resistant acid phosphatase activity at 60 uM
Parameters: scale not given: the % may be the effect or the level left

Compound: CCCCC/C(=N/S(=O)(=O)c1ccc(C)cc1)N1C(C)CCCC1C (stereo unspecified)
- Activity: 0%
